Measurements: ChEMBL document CHEMBL1133875, “1-(Arylpiperazinylamidoalkyl)-pyrimidones: orally active inhibitors of lipoprotein-associated phospholipase A(2)” (Bioorg Med Chem Lett, 2001)

Assays:
[1] = molecular target: T1, Platelet-activating factor acetylhydrolase (Homo sapiens, UniProt Q13093); assay: Inhibitory activity against human lipoprotein associated phospholipase A2 (Lp-PLA2)
T1 sequence (Q13093 whole entry): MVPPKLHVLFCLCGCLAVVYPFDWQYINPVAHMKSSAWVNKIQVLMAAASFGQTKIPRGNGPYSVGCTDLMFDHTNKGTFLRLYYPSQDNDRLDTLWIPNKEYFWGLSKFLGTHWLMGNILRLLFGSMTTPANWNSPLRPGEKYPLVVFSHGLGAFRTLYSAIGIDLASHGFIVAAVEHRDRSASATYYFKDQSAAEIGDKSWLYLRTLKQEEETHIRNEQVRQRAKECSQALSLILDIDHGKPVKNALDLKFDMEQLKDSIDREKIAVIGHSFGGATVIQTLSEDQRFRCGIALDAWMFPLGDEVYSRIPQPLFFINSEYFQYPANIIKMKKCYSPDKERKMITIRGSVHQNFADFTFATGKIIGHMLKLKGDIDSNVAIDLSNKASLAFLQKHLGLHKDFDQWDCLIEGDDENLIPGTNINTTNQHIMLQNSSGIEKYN

[2] = species on record: Homo sapiens; assay: Intrinsic clearance in human liver microsomes; format: ADME, Microsome
[3] = species on record: Rattus norvegicus; assay: Intrinsic clearance in rat liver microsomes; format: ADME, Microsome

SMILES | IC50 [1] | CLi [2] | CLi [3]
CN(C)c1ncc(Cc2cn(CC(=O)N3CCN(c4ccc(Cl)cc4)CC3)c(SCc3ccc(F)cc3)nc2=O)cn1 | 29 nM | – | –
O=C(Cn1cc(Cc2cnc(C3CC3)nc2)c(=O)nc1SCc1ccc(F)cc1)N1CCN(c2ccc(Cl)cc2)CC1 | 21 nM | – | –
O=C(Cn1cc(Cc2cncnc2)c(=O)nc1SCc1ccc(F)cc1)N1CCNCC1 | 460 nM | – | –
CCCCCCCC/C=C/CCCCCCCCNC(=O)CCCn1cc(Cc2cncnc2)c(=O)nc1SCc1ccc(F)cc1 | 0.4 nM | – | –
O=C(Cn1cc(Cc2cncnc2)c(=O)nc1SCc1ccc(F)cc1)N1CCN(c2ccc(C(F)(F)F)cc2)CC1 | 26 nM | – | –
O=C(Cn1cc(Cc2cncnc2)c(=O)nc1SCc1ccc(F)cc1)N1CCN(c2cncnc2)CC1 | 410 nM | – | –
COc1ncc(Cc2cn(CCCC(=O)N3CCN(c4ccc(C(F)(F)F)cc4)CC3)c(SCc3ccc(F)cc3)nc2=O)cn1 | 2 nM | – | –
COc1ncc(Cc2cn(CCCC(=O)N3CCN(c4ccc(Cl)c(Cl)c4)CC3)c(SCc3ccc(F)cc3)nc2=O)cn1 | 2 nM | – | –
Cn1cc(Cc2cn(CCCC(=O)N3CCN(c4ccc(Cl)c(Cl)c4)CC3)c(SCc3ccc(F)cc3)nc2=O)cnc1=O | 9 nM | – | –
COc1ncc(Cc2cn(CC(=O)N3CCN(c4ccc(Cl)cc4)CC3)c(SCc3ccc(F)cc3)nc2=O)cn1 | 20 nM | 3 mL/min/g | 2 mL/min/g
O=C(Cn1cc(Cc2cnc(C(F)(F)F)nc2)c(=O)nc1SCc1ccc(F)cc1)N1CCN(c2ccc(Cl)cc2)CC1 | 69 nM | – | –
COc1ncc(Cc2cn(CC(=O)N3CCN(c4ccc(Cl)c(Cl)c4)CC3)c(SCc3ccc(F)cc3)nc2=O)cn1 | – | 7 mL/min/g | 2 mL/min/g
O=C(O)Cn1cc(Cc2cn(CCCC(=O)N3CCN(c4ccc(Cl)c(Cl)c4)CC3)c(SCc3ccc(F)cc3)nc2=O)cnc1=O | 9 nM | – | –
COc1ncc(Cc2cn(CCCC(=O)N3CCN(c4ccc(Cl)cc4)CC3)c(SCc3ccc(F)cc3)nc2=O)cn1 | 8 nM | > 50 mL/min/g | 19 mL/min/g
CC(C)(C)c1ncc(Cc2cn(CC(=O)N3CCN(c4ccc(Cl)cc4)CC3)c(SCc3ccc(F)cc3)nc2=O)cn1 | 34 nM | – | –
CCCCCCCCCCCCN(C)C(=O)Cn1cc(Cc2cnc(OC)nc2)c(=O)nc1SCc1ccc(F)cc1 | 1 nM | – | –
O=C(Cn1cc(Cc2cnc(N3CCOCC3)nc2)c(=O)nc1SCc1ccc(F)cc1)N1CCN(c2ccc(Cl)cc2)CC1 | 10 nM | > 50 mL/min/g | 13 mL/min/g

Second part, the molecule after the results:

IC50 [1] | CLi [2] | CLi [3] | SMILES
18 nM | 7 mL/min/g | 3 mL/min/g | Cc1ncc(Cc2cn(CC(=O)N3CCN(c4ccc(Cl)cc4)CC3)c(SCc3ccc(F)cc3)nc2=O)cn1
51 nM | – | – | Cn1cc(Cc2cn(CC(=O)N3CCN(c4ccc(Br)cc4)CC3)c(SCc3ccc(F)cc3)nc2=O)cn1
260 nM | – | – | O=C(Cn1cc(Cc2cncnc2)c(=O)nc1SCc1ccc(F)cc1)N1CCN(S(=O)(=O)c2ccccc2)CC1
85 nM | – | – | O=C(Cn1cc(Cc2cncnc2)c(=O)nc1SCc1ccc(F)cc1)N1CCN(Cc2ccccc2)CC1
1280 nM | – | – | O=C(Cn1cc(Cc2cncnc2)c(=O)nc1SCc1ccc(F)cc1)N1CCN(C(=O)c2ccccc2)CC1
5 nM | – | – | Cn1cc(Cc2cn(CCCC(=O)N3CCN(c4ccc(C(F)(F)F)cc4)CC3)c(SCc3ccc(F)cc3)nc2=O)cn1
530 nM | – | – | Cn1cc(Cc2cn(CC(=O)N3CCN(Cc4ccccc4)C(=O)C3)c(SCc3ccc(F)cc3)nc2=O)cn1
44 nM | – | – | Cn1cc(Cc2cn(CC(=O)N3CCN(c4ccc(Cl)cc4)CC3)c(SCc3ccc(F)cc3)nc2=O)cn1
89 nM | – | – | O=C(O)Cn1cc(Cc2cn(CC(=O)N3CCN(c4ccc(Cl)cc4)CC3)c(SCc3ccc(F)cc3)nc2=O)cnc1=O
97 nM | – | – | O=C(Cn1cc(Cc2cncnc2)c(=O)nc1SCc1ccc(F)cc1)N1CCN(c2ccc(F)cc2)CC1
70 nM | 4 mL/min/g | 3 mL/min/g | Cn1cc(Cc2cn(CC(=O)N3CCN(c4ccc(Cl)cc4)CC3)c(SCc3ccc(F)cc3)nc2=O)cnc1=O
3 nM | – | – | Cn1cc(Cc2cn(CCCC(=O)N3CCN(c4ccc(Cl)cc4)CC3)c(SCc3ccc(F)cc3)nc2=O)cn1
350 nM | – | – | O=C(Cn1cc(Cc2cncnc2)c(=O)nc1SCc1ccc(F)cc1)N1CCN(c2ccccn2)CC1
720 nM | – | – | Cn1cc(Cc2cn(CC(=O)N3CCN(C4CCCCC4)CC3)c(SCc3ccc(F)cc3)nc2=O)cn1
130 nM | – | – | CC(=O)c1ccc(N2CCN(C(=O)Cn3cc(Cc4cncnc4)c(=O)nc3SCc3ccc(F)cc3)CC2)cc1
24 nM | – | – | CCCCCCCCN1CCN(C(=O)Cn2cc(Cc3cnn(C)c3)c(=O)nc2SCc2ccc(F)cc2)CC1
12 nM | 11 mL/min/g | 6 mL/min/g | Cn1cc(Cc2cn(CC(=O)N3CCN(c4ccc(Cl)c(Cl)c4)CC3)c(SCc3ccc(F)cc3)nc2=O)cn1
120 nM | – | – | O=C(Cn1cc(Cc2cncnc2)c(=O)nc1SCc1ccc(F)cc1)N1CCN(c2ccccc2)CC1
6700 nM | – | – | O=C(Cn1cc(Cc2cncnc2)c(=O)nc1SCc1ccc(F)cc1)N1CCN(c2ccccc2)C(=O)C1
66 nM | – | – | O=C(Cn1cc(Cc2cncnc2)c(=O)nc1SCc1ccc(F)cc1)N1CCN(c2cccc(Cl)c2)CC1
176 nM | – | – | COc1ccc(N2CCN(C(=O)Cn3cc(Cc4cncnc4)c(=O)nc3SCc3ccc(F)cc3)CC2)cc1
